Patent publication US12180193B2, “Accelerating fibrosarcoma protein degrading compounds and associated methods of use” (Arvinas Operations, Inc., priority 2020, dated 2024)
Where two headings read alike, the source gives them in different places.

Columns and labels:
BRAF V600E = target: T1, BRAF V600E (Homo sapiens, UniProt P15056, V600E); assay: Cellular assay of target protein degradation, T-Rex 293 cells stably transfected with HA-BRAF_V600E (HA immunofluorescence, high content imaging); type: cell-based
T1 construct: expressed in transfected cells
How it was run: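 Read-out is anti-HA immunofluorescence quantified by high-content imaging, giving half-maximal degradation concentration (DC50) and maximum degradation (Dmax, percent of control). Cells expressed the construct under 1 ng/mL doxycycline and received compound (1 μM to 0.1 nM final, 0.1% DMSO) for 24 h at 37 °C.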

BRAF G466V = target: T2, BRAF G466V (Homo sapiens, UniProt P15056, G466V); assay: Cellular assay of target protein degradation, T-Rex 293 cells stably transfected with HA-BRAF G466V (HA immunofluorescence, high content imaging); type: cell-based
T2 construct: expressed in transfected cells
How it was run: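 First, stably transfected T-Rex 293 cells were plated with 0.75 ng/mL doxycycline and grown for 24 hours. Next, compound (final 30 nM to 3 pM, 0.1% DMSO) was added for another 24 hours at 37° C. Finally, cells were fixed, stained for HA and imaged.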

[1] = half maximal degradation, T-Rex 293 HA-BRAF V600E; read-out: BRaf V600E DC50
[2] = maximum degradation observed, T-Rex 293 HA-BRAF V600E
[3] = half maximal degradation, T-Rex 293 HA-BRAF G466V; read-out: BRaf G466V DC50
[4] = maximum degradation observed, T-Rex 293 HA-BRAF G466V

T1 sequence (P15056 whole entry V600E): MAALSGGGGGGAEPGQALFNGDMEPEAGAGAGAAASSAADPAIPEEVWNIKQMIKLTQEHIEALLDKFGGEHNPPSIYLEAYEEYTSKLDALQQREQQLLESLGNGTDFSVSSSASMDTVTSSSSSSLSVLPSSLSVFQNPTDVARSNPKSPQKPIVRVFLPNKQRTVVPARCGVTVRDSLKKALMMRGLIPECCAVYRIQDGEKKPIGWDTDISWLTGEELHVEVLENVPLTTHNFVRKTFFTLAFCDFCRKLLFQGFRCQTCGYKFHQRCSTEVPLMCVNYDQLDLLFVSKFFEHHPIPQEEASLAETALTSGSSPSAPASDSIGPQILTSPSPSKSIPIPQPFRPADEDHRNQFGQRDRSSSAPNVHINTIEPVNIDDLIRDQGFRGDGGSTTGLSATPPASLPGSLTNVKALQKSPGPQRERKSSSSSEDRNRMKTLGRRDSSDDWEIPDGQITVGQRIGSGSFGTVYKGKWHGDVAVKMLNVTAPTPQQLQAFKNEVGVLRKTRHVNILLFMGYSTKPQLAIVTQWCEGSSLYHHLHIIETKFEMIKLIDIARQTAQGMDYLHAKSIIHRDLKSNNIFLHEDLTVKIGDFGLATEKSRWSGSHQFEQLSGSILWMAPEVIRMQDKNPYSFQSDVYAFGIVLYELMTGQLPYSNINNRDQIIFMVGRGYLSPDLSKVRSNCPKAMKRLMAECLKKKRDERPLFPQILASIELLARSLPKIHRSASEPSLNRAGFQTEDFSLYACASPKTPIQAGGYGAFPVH
T2 sequence (P15056 whole entry G466V): as the sequence (P15056 whole entry V600E) above, with G466V, E600V counted along it

Row | Structure (SMILES) | DC50 (BRAF V600E; [1]) | Dmax (BRAF V600E; [2]) | DC50 (BRAF G466V; [3]) | Dmax (BRAF G466V; [4]) | DC50 (BRAF V600E; read-out: BRaf V600E DC50; half maximal degradation, T-Rex 293 HA-BRAF V600E) | DC50 (BRAF G466V; read-out: BRaf G466V DC50; half maximal degradation, T-Rex 293 HA-BRAF G466V)
1 | O=C1CCC(N2Cc3cc(N4CCC(CN5CCN(c6ccc(-c7cnc8[nH]cc(C(=O)c9c(F)ccc(NS(=O)(=O)N%10CC[C@@H](F)C%10)c9F)c8c7)cc6F)CC5)CC4)ccc3C2=O)C(=O)N1 (stereo partly drawn) [Compound 11, (3R)-N-[3-(5-{4-[4-({1-[2-(2,6-dioxopiperidin-3-yl)-1-oxo-2,3-dihydro-1H-isoindol-5-yl]piperidin-4-yl}methyl)piperazin-1-yl]-3-fluorophenyl}-1H-pyrrolo[2,3-b]pyridine-3-carbonyl)-2,4-difluorophenyl]-3-fluoropyrrolidine-1-sulfonamide] | 0.005 to 0.05 µM | 35 to 70% | < 0.001 µM | 35 to 70% | – | –
2 | O=C1CCC(N2Cc3cc(C4CCN(C[C@@H](O)Cc5ccc(-c6cnc7[nH]cc(C(=O)c8c(F)ccc(NS(=O)(=O)N9CC[C@@H](F)C9)c8F)c7c6)cc5)CC4)ccc3C2=O)C(=O)N1 (stereo partly drawn) [Compound 118, (3R)-N-[3-(5-{4-[(2S)-3-{4-[2-(2,6-dioxopiperidin-3-yl)-1-oxo-2,3-dihydro-1H-isoindol-5-yl]piperidin-1-yl}-2-hydroxypropyl]phenyl}-1H-pyrrolo[2,3-b]pyridine-3-carbonyl)-2,4-difluorophenyl]-3-fluoropyrrolidine-1-sulfonamide] | > 0.5 µM | > 70% | 0.001 to 0.01 µM | > 70% | – | –
3 | O=C1CCC(N2Cc3cc(N4CCC(CC5CCN(c6ccc(-c7cnc8[nH]cc(C(=O)c9c(F)ccc(NS(=O)(=O)N%10CC[C@@H](F)C%10)c9F)c8c7)cc6)CC5)CC4)ccc3C2=O)C(=O)N1 (stereo partly drawn) [Compound 181, (3R)-N-[3-(5-{4-[4-({1-[2-(2,6-dioxopiperidin-3-yl)-1-oxo-2,3-dihydro-1H-isoindol-5-yl]piperidin-4-yl}methyl)piperidin-1-yl]phenyl}-1H-pyrrolo[2,3-b]pyridine-3-carbonyl)-2,4-difluorophenyl]-3-fluoropyrrolidine-1-sulfonamide] | – | < 35% | – | 35 to 70% | 0.05 to 0.5 µM | 0.01 to 0.03 µM
4 | CCc1ccc(NS(=O)(=O)N2CC[C@@H](F)C2)c(F)c1C(=O)c1c[nH]c2ncc(-c3ccc(N4CCC(CN5CCC(c6ccc7c(c6)CN([C@H]6CCC(=O)NC6=O)C7=O)CC5)CC4)cc3)cc12 [Compound 265, (3R)-N-{3-[5-(4-{4-[(4-{2-[(3S)-2,6-dioxopiperidin-3-yl]-1-oxo-2,3-dihydro-1H-isoindol-5-yl}piperidin-1-yl)methyl]piperidin-1-yl}phenyl)-1H-pyrrolo [2,3-b]pyridine-3-carbonyl]-4-ethyl-2-fluorophenyl}-3-fluoropyrrolidine-1-sulfonamide] | > 0.5 µM | – | > 0.03 µM | – | – | –
5 | C[C@H]1CCCN1S(=O)(=O)Nc1ccc(F)c(C(=O)c2c[nH]c3ncc(-c4ccc(N5CCC(CN6CCC(c7ccc8c(c7)CN(C7CCC(=O)NC7=O)C8=O)CC6)CC5)cc4)cc23)c1F (stereo partly drawn) [Compound 264, (2S)-N-[3-(5-{4-[4-({4-[2-(2,6-dioxopiperidin-3-yl)-1-oxo-2,3-dihydro-1H-isoindol-5-yl]piperidin-1-yl}methyl)piperidin-1-yl]phenyl}-1H-pyrrolo[2,3-b]pyridine-3-carbonyl)-2,4-difluorophenyl]-2-methylpyrrolidine-1-sulfonamide] | 0.005 to 0.05 µM | 35 to 70% | 0.001 to 0.01 µM | 35 to 70% | – | –
6 | C[C@H]1C[C@@H](CN2CCC(c3ccc4c(c3)CN([C@@H]3CCC(=O)NC3=O)C4=O)CC2)CCN1c1ccc(-c2cnc3[nH]cc(C(=O)c4c(F)ccc(NS(=O)(=O)N5CC[C@@H](F)C5)c4F)c3c2)cc1 [Compound 240, (3R)-N-[3-(5-{4-[(2S,4S)-4-[(4-{2-[(3R)-2,6-dioxopiperidin-3-yl]-1-oxo-2,3-dihydro-1H-isoindol-5-yl}piperidin-1-yl)methyl]-2-methylpiperidin-1-yl]phenyl}-1H-pyrrolo[2,3-b]pyridine-3-carbonyl)-2,4-difluorophenyl]-3-fluoropyrrolidine-1-sulfonamide] | 0.005 to 0.05 µM | 35 to 70% | 0.001 to 0.01 µM | > 70% | – | –
7 | C[C@H]1CC[C@H](C)N1S(=O)(=O)Nc1ccc(F)c(C(=O)c2c[nH]c3ncc(-c4ccc(N5CCC(CN6CCC(c7ccc8c(c7)CN([C@H]7CCC(=O)NC7=O)C8=O)CC6)CC5)cc4)cc23)c1F [Compound 262, (2S,5S)-N-{3-[5-(4-{4-[(4-{2-[(3S)-2,6-dioxopiperidin-3-yl]-1-oxo-2,3-dihydro-1H-isoindol-5-yl}piperidin-1-yl)methyl]piperidin-1-yl}phenyl)-1H-pyrrolo [2,3-b]pyridine-3-carbonyl]-2,4-difluorophenyl}-2,5-dimethylpyrrolidine-1-sulfonamide] | 0.005 to 0.05 µM | < 35% | 0.001 to 0.01 µM | 35 to 70% | – | –
8 | CC(C)N(C)S(=O)(=O)Nc1ccc(F)c(C(=O)c2c[nH]c3ncc(-c4ccc(N5CCC(CN6CCC(c7ccc8c(c7)CN([C@H]7CCC(=O)NC7=O)C8=O)CC6)CC5)cc4)cc23)c1F [Compound 208, (3S)-3-(5-{1-[(1-{4-[3-(2,6-difluoro-3-{[methyl(propan-2-yl)sulfamoyl]amino}benzoyl)-1H-pyrrolo[2,3-b]pyridin-5-yl]phenyl}piperidin-4-yl)methyl]piperidin-4-yl}-1-oxo-2,3-dihydro-1H-isoindol-2-yl)piperidine-2,6-dione] | 0.005 to 0.05 µM | 35 to 70% | < 0.001 µM | 35 to 70% | – | –
9 | CCCS(=O)(=O)Nc1ccc(F)c(-n2cc(-c3cncnc3)c3nc(N(C)C4CCN(C(=O)CCOCCOCCOCCOCCNc5cccc6c5C(=O)N(C5CCC(=O)NC5=O)C6=O)CC4)ccc32)c1F (stereo not drawn) [Compound 338] | 0.05 to 0.5 µM | 35 to 70% | 0.01 to 0.03 µM | 35 to 70% | – | –

Continued, in another order:

Row | DC50 (BRAF V600E; [1]) | Dmax (BRAF V600E; [2]) | DC50 (BRAF G466V; [3]) | Dmax (BRAF G466V; [4]) | Structure (SMILES) | DC50 (BRAF V600E; read-out: BRaf V600E DC50; half maximal degradation, T-Rex 293 HA-BRAF V600E) | DC50 (BRAF G466V; read-out: BRaf G466V DC50; half maximal degradation, T-Rex 293 HA-BRAF G466V)
10 | 0.05 to 0.5 µM | 35 to 70% | 0.001 to 0.01 µM | 35 to 70% | O=C1CCC(N2Cc3cc(N4CCC(N5CCC56CN(c5ccc(-c7cnc8[nH]cc(C(=O)c9c(F)ccc(NS(=O)(=O)N%10CC[C@@H](F)C%10)c9F)c8c7)cc5)C6)CC4)ccc3C2=O)C(=O)N1 (stereo partly drawn) [Example 9] | – | –
11 | 0.05 to 0.5 µM | 35 to 70% | 0.001 to 0.01 µM | 35 to 70% | O=C1CCC(NC(=O)c2ccc(C3CCN(CC4CCN(c5ncc(-c6cnc7[nH]cc(C(=O)c8c(F)ccc(NS(=O)(=O)N9CC[C@@H](F)C9)c8F)c7c6)cn5)CC4)CC3)cc2F)C(=O)N1 (stereo partly drawn) [Compound 376, 4-(1-{[1-(5-{3-[2,6-difluoro-3-({[(3R)-3-fluoropyrrolidin-1-yl]sulfonyl}amino)benzoyl]-1H-pyrrolo[2,3-b]pyridin-5-yl}pyrimidin-2-yl)piperidin-4-yl]methyl}piperidin-4-yl)-N-(2,6-dioxopiperidin-3-yl)-2-fluorobenzamide] | – | –
12 | 0.05 to 0.5 µM | 35 to 70% | > 0.03 µM | – | O=C1CC[C@H](NC(=O)c2ccc(CCCN3CC4(C3)CN(c3ccc(-c5cnc6[nH]cc(C(=O)c7c(F)ccc(NS(=O)(=O)N8CC[C@@H](F)C8)c7F)c6c5)cc3)C4)cc2F)C(=O)N1 [Compound 355, 4-{3-[6-(4-{3-[2,6-difluoro-3-({[(3R)-3-fluoropyrrolidin-1-yl]sulfonyl}amino)benzoyl]-1H-pyrrolo[2,3-b]pyridin-5-yl}phenyl)-2,6-diazaspiro[3.3]heptan-2-yl]propyl}-N-[(3S)-2,6-dioxopiperidin-3-yl]-2-fluorobenzamide] | – | –
13 | 0.05 to 0.5 µM | > 70% | 0.001 to 0.01 µM | > 70% | O=C1CC[C@H](NC(=O)N2CCCc3c(N4CCC(CN5CCN(c6ccc(-c7cnc8[nH]cc(C(=O)c9c(F)ccc(NS(=O)(=O)N%10CC[C@@H](F)C%10)c9F)c8c7)cc6)CC5)CC4)ccnc32)C(=O)N1 [Compound 371, 5-(4-{[4-(4-{3-[2,6-difluoro-3-({[(3R)-3-fluoropyrrolidin-1-yl]sulfonyl}amino)benzoyl]-1H-pyrrolo[2,3-b]pyridin-5-yl}phenyl)piperazin-1-yl]methyl}piperidin-1-yl)-N-[(3S)-2,6-dioxopiperidin-3-yl]-1,2,3,4-tetrahydro-1,8-naphthyridine-1-carboxamide] | – | –
14 | 0.005 to 0.05 µM | 35 to 70% | 0.001 to 0.01 µM | > 70% | COc1cc(N2CC3(CN(CC4CCN(c5ccc(-c6cnc7[nH]cc(C(=O)c8c(F)ccc(NS(=O)(=O)N9CC[C@@H](F)C9)c8F)c7c6)cc5)CC4)C3)C2)cc(F)c1C(=O)N[C@H]1CCC(=O)NC1=O [Compound 347, 4-(6-{[1-(4-{3-[2,6-difluoro-3-({[(3R)-3-fluoropyrrolidin-1-yl]sulfonyl}amino)benzoyl]-1H-pyrrolo[2,3-b]pyridin-5-yl}phenyl)piperidin-4-yl]methyl}-2,6-diazaspiro[3.3]heptan-2-yl)-N-[(3S)-2,6-dioxopiperidin-3-yl]-2-fluoro-6-methoxybenzamide] | – | –
15 | 0.005 to 0.05 µM | 35 to 70% | < 0.001 µM | 35 to 70% | O=C1CCC(NC(=O)c2ccc(N3CC4(CN(CCc5ccc(-c6cnc7[nH]cc(C(=O)c8c(F)ccc(NS(=O)(=O)N9CC[C@@H](F)C9)c8F)c7c6)cc5)C4)C3)cc2F)C(=O)N1 (stereo partly drawn) [Compound 374, 4-{6-[2-(4-{3-[2,6-difluoro-3-({[(3R)-3-fluoropyrrolidin-1-yl]sulfonyl}amino)benzoyl]-1H-pyrrolo[2,3-b]pyridin-5-yl}phenyl)ethyl]-2,6-diazaspiro[3.3]heptan-2-yl}-N-(2,6-dioxopiperidin-3-yl)-2-fluorobenzamide] | – | –
